Results taken from patent US9963518B2, “Cyclic oligosaccharides for use in the treatment and prevention of bacterial infection” (priority 2011, dated 2018).
Where two headings read alike, the source gives them in different places.

How the values were obtained:
[1] = target: WT Wza (Escherichia coli, UniProt Q9X4B7); assay: Single-channel electrical recording, blockers against wt-Wza in planar lipid bilayers; type: binding, E. coli; conditions: for Interaction with WT Wza: 2M KCl, 5 mM HEPES, 100 μM EDTA, 200 μM DTT, pH 7.5
Procedure: The Wt Wza transporter was tested in single-channel recording, in accordance with the procedures of Naismith (Nature 2006, 444, 226-229) for its ability to form pores in planar lipid bilayers. Sequential insertions of channels in a single orientation were used to measure the conductance of a single channel because more than one channel could insert simultaneously during the first introduction, especially when protein molecules have not properly diffused yet. Repetition of experiments helped to verify conductance of a single channel. […] After collection of 37 insertions of wt Wza channel, the current of a single channel of wt Wza in 2 M KCl buffer was determined to be 1.89±0.01 pA (n=37) on average, corresponding to 18.9±0.1 pS (n=37) in conductance.
(§1) Thirteen commercial cyclodextrins (CDs) were tested for their ability to block WT-Wza and the mutant Y110G/K375C (Table 1) including, neutral, negatively charged or positively charged cyclodextrins. Testing was carried out using electrical channel recording in high salt buffer (2M KCl, 5 mM HEPES, 100 μM EDTA, 200 μM DTT) at pH 7.5.

[2] = test system: E. coli strain E69; assay: LPS exposure assay, O9a LPS to O9a LPS-specific antibodies (FACS); type: cell-based; conditions: 1 mM, antiserum incubation 1 h; for LPS exposure by median fluorescence intensity: relative to CWG281 positive control
Procedure: The direct effect of the inhibition of K30 CPS transport on E. coli strain E69 is the appearance of defects in the capsule layer. This should in turn lead to exposure of O9a LPS at the cell surface. To test this hypothesis, the attachment of rabbit anti-O9a antibodies was quantified by flow cytometry (FACS), by using secondary fluorescent anti-rabbit antibodies. The design of the experiment is depicted schematically in FIG. 4a.
E. coli strains E69 and CWG281 were grown as described above in Example 4 and the OD600 was adjusted to 0.4. The concentrations of cyclodextrin (either am8γCD (compound 13), am6αCD (compound 3) or am7βCD (compound 10)) present in the growth media were 10 nM, 100 nM, 1 μM, 10 μM, 50 μM, 100 μM and 1 mM. 50 μL samples of each were centrifuged at 3,000×g for 10 min to remove the medium, washed with PBS and resuspended in 50 μL PBS. O9a antiserum (0.5 μL) was then added. The mixtures were incubated on ice for 1 h (to compare the effects of am6αCD, am7βCD and am8γCD on the exposure of LPS) or 2 h (for the estimation of minimum effective concentration of am8γCD required to expose LPS to antibodies), followed by centrifugation at 3,000×g for 10 min and washing with PBS. The pellets were resuspended in PBS (50 μL), to which Alexa Fluor 488 Goat Anti-Rabbit IgG secondary antibody (1 μL, Life Technologies, A11034, λex 495 nm, λem 519 nm) was added, followed by incubation for 1 h on ice. The cells were then centrifuged at 3,000×g for 10 min. The pellets were resuspended in PBS (1 mL), followed by analysis by flow cytometry (FACS) using a Becton-Dickinson FACSCalibur. 10,000 cells were analysed for each sample. Fluorescence was measured in the FL1 channel (530 nm).

[3] = target: Wza Y110G/K375C (Escherichia coli, UniProt Q9X4B7, K375C/Y110G); assay: Single-channel electrical recording, blockers against mutant Wza Y110G/K375C; type: binding, E. coli; conditions: Y110G/K375C; for Kd: n = 3, 2M KCl buffer pH 7.5
Procedure: The Wza pore was opened by replacing the tyrosines at position 110 that line the narrowest region of the lumen with glycine. To confirm that the currents observed indeed arose from the mutant pore, a cysteine was introduced in the α-helix barrel (Y110G/K375C) and would therefore yield a characteristic reversible blockade when derivatized with a suitable thiol-specific reagent.
The unitary conductance of the Y110G/K375C pore was determined as for wt-Wza, by measuring stepwise-insertion using the same technique referenced above. The mean open current of Y110G/K375C was determined to be +85±14.1 pA (+50 mV, n=31), corresponding to 1.70±0.28 nS (+50 mV, n=31) in conductance.
as §1

Row | Compound | Interaction with WT Wza [1] | LPS exposure by percentage of labelled cells [2] [%] | LPS exposure by median fluorescence intensity [2] [%] | Interaction with mutant Wza ([3]; 2M KCl, 5 mM HEPES, 100 μM EDTA, 200 μM DTT, pH 7.5) | Kd ([3]; +3 mV, read-out: Kd, interaction with mutant Wza) [µM] | Kd [1] [µM] | Kd ([3]; Kd, interaction with mutant Wza, +3 mV) [µM] | Kd ([3]; Kd, interaction with mutant Wza, +75 mV) [µM]
1 | NCC1OC2OC3C(CN)OC(OC4C(CN)OC(OC5C(CN)OC(OC6C(CN)OC(OC7C(CN)OC(OC1C(O)C2O)C(O)C7O)C(O)C6O)C(O)C5O)C(O)C4O)C(O)C3O (stereo not drawn) [No. 3, hexakis (6-amino-6-deoxy)-α-cyclodextrin] | not observed | 36 | 3.2 | – | – | – | – | –
2 | NC[C@H]1O[C@@H]2O[C@H]3[C@H](O)[C@@H](O)[C@@H](O[C@H]4[C@H](O)[C@@H](O)[C@@H](O[C@H]5[C@H](O)[C@@H](O)[C@@H](O[C@H]6[C@H](O)[C@@H](O)[C@@H](O[C@H]7[C@H](O)[C@@H](O)[C@@H](O[C@H]8[C@H](O)[C@@H](O)[C@@H](O[C@H]1[C@H](O)[C@H]2O)O[C@@H]8CN)O[C@@H]7CN)O[C@@H]6CN)O[C@@H]5CN)O[C@@H]4CN)O[C@@H]3CN [No. 4, heptakis (6-amino-6-deoxy)-β-cyclodextrin] | not observed | 9 | 1.8 | not observed^b | 2900 ± 1800 | – | – | –
3 | NC[C@H]1O[C@@H]2O[C@H]3[C@H](O)[C@@H](O)[C@@H](O[C@H]4[C@H](O)[C@@H](O)[C@@H](O[C@H]5[C@H](O)[C@@H](O)[C@@H](O[C@H]6[C@H](O)[C@@H](O)[C@@H](O[C@H]7[C@H](O)[C@@H](O)[C@@H](O[C@H]8[C@H](O)[C@@H](O)[C@@H](O[C@H]1[C@H](O)[C@H]2O)O[C@@H]8CN)O[C@@H]7CN)O[C@@H]6CN)O[C@@H]5CN)O[C@@H]4CN)O[C@@H]3CN [compound 4] | – | – | – | – | – | 13000 | 2900 | 2100
